Several values for one entry are separate records, joined by “and”; a condition that tells them apart may be missing. Identical values can stand only once.
Legend:
[1] = test system: MERS-CoV; assay: microbe, parasite or virus in culture; format: cell-based; settings: Vero E6/TMPRSS2 MERS-CoV antiviral effect with P-gp inhibitor; for perc_max_measured: maximum measured response of dose series; for perc_min_measured: minimum measured response of dose series; for EC50: read-out: ec50; for EC90: read-out: ec90
[2] = Protein binding; format: in vitro ADME
Description: Supplement media-1.zip/Protein_Binding.csv, table | column: fu; perc_bound; perc_free; perc_recovered

[3] = test system: Ca2+ channel (L, dihydropyridine site); assay: In vitro CEREP profiling, Ca2+ channel (L, dihydropyridine site) (antagonist radioligand); format: binding; settings: test compound concentration 10 uM
Description: (§1) Supplement media-1.zip/Safety_Panel_Profile.csv, table | column: perc_inhibition

[4] = target: T1, PDE4D2 (h) (Homo sapiens, UniProt Q08499); assay: In vitro CEREP profiling, PDE4D2 (h); format: biochemical; settings: test compound concentration 10 uM; Enzyme and Cell-based assays
T1 construct: purchased Eurofins Cerep (SafetyScreen44), recognised from the panel format
T1 sequence (Q08499 303-809): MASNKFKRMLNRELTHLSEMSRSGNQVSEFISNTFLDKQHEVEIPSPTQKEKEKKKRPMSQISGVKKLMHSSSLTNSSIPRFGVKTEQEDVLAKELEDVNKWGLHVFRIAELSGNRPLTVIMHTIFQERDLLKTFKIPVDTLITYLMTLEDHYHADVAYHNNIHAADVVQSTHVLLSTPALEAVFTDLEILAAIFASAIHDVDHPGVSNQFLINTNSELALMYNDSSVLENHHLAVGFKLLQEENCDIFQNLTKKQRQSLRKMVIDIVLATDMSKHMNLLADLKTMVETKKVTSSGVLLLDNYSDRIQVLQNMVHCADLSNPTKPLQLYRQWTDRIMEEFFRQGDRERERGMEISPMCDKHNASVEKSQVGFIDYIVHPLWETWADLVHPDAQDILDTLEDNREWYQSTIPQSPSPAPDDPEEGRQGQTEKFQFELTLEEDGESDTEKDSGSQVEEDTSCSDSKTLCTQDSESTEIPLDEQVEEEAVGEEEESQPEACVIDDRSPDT
Description: as §1

[5] = test system: NMDA; assay: In vitro CEREP profiling, NMDA (antagonist radioligand); format: binding; settings: test compound concentration 10 uM
Description: as §1

[6] = In vitro mouse hepatocyte stability; format: in vitro ADME
Description: (§2) Supplement media-1.zip/Hepatocyte_Stability.csv, table | column: clint; t_half

[7] = target: T2, H1 (h) (Homo sapiens, UniProt P35367); assay: In vitro CEREP profiling, H1 (h) (antagonist radioligand); format: binding; settings: test compound concentration 10 uM
T2 construct: purchased Eurofins Cerep (SafetyScreen44), recognised from the panel format
T2 sequence (P35367 whole entry): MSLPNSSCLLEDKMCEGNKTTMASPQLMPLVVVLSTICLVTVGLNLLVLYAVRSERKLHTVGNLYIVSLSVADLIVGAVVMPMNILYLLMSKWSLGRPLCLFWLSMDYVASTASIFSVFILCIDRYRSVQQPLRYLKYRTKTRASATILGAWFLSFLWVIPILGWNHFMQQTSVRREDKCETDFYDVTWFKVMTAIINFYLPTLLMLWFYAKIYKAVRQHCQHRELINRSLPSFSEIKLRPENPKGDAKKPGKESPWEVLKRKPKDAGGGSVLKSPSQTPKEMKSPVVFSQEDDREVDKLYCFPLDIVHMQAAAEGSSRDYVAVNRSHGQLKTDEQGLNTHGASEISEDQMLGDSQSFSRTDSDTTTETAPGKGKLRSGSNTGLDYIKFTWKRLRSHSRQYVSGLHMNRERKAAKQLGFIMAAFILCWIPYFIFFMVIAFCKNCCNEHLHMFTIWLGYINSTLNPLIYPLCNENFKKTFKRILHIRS
Description: as §1

[8] = test system: KV channel; assay: In vitro CEREP profiling, KV channel (antagonist radioligand); format: binding; settings: test compound concentration 10 uM
Description: as §1

[9] = target: T3, MAO-A (Rattus norvegicus, UniProt P21396); assay: In vitro CEREP profiling, MAO-A (antagonist radioligand); format: binding; settings: test compound concentration 10 uM
T3 construct: purchased Eurofins Cerep (SafetyScreen44), recognised from the panel format
T3 sequence (P21396 1-526): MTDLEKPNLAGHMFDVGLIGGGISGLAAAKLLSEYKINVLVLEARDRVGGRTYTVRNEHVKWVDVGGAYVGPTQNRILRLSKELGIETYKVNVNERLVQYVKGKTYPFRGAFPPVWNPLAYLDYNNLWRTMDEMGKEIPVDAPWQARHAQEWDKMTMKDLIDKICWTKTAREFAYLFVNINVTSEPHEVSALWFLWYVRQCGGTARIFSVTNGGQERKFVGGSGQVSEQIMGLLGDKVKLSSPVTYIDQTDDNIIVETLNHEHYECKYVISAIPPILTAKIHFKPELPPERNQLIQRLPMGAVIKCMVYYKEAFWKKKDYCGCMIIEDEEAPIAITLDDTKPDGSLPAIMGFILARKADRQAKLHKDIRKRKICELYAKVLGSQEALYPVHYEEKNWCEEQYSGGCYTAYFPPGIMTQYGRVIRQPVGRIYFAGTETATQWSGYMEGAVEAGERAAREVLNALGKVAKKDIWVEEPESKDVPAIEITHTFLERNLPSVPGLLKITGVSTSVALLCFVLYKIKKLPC
Description: as §1

[10] = target: T4, norepinephrine transporter (h) (Homo sapiens, UniProt P23975); assay: In vitro CEREP profiling, norepinephrine transporter (h) (antagonist radioligand); format: binding; settings: test compound concentration 10 uM
T4 construct: purchased Eurofins Cerep (SafetyScreen44), recognised from the panel format
T4 sequence (P23975 whole entry): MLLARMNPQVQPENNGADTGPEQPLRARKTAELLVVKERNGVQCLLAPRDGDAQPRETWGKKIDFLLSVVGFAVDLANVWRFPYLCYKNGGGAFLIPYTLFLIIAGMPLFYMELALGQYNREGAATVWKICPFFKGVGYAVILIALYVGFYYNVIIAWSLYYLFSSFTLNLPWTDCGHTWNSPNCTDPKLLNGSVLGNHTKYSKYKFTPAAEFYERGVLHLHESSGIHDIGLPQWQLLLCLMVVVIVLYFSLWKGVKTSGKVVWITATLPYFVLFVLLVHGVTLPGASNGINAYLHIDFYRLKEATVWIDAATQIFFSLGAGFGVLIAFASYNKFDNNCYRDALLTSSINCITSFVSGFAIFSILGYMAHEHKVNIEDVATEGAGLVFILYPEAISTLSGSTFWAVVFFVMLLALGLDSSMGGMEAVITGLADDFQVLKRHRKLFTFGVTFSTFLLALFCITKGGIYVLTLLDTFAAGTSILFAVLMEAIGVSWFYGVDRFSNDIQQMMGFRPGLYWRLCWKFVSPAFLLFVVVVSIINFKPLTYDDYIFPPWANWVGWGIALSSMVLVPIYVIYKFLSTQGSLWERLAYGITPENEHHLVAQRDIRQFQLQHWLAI
Description: as §1

[11] = Hepatic microsomal stability, HLM; format: in vitro ADME, human; settings: In vitro human liver microsomal stability; for perc_remaining_no_cofactor: no cofactor
[12] = In vitro dog liver microsomal stability; format: in vitro ADME
Description: Supplement media-1.zip/Hepatic_Microsomal_Stability.csv, table | column: clint; t_half

[13] = target: T5, V1a (h) (Homo sapiens, UniProt P37288); assay: In vitro CEREP profiling, V1a (h) (agonist radioligand); format: binding; settings: test compound concentration 10 uM
T5 construct: purchased Eurofins Cerep (SafetyScreen44), recognised from the panel format
T5 sequence (P37288 whole entry): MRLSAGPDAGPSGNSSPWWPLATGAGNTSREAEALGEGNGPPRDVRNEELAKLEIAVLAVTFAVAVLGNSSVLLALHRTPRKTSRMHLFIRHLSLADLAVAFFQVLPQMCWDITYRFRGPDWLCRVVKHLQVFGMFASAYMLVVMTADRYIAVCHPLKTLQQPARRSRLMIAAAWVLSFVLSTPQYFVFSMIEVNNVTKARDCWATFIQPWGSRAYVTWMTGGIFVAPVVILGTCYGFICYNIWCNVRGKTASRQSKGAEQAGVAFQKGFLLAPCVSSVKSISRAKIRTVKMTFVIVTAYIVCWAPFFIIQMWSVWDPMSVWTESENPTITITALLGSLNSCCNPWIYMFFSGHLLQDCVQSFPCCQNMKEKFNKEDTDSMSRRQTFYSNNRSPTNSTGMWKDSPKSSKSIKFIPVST
Description: as §1

[14] = target: T6, mu (MOP) (h) (Homo sapiens, UniProt P35372); assay: In vitro CEREP profiling, mu (MOP) (h) (agonist radioligand); format: binding; settings: test compound concentration 10 uM
T6 construct: purchased Eurofins Cerep (SafetyScreen44), recognised from the panel format
T6 sequence (P35372 whole entry): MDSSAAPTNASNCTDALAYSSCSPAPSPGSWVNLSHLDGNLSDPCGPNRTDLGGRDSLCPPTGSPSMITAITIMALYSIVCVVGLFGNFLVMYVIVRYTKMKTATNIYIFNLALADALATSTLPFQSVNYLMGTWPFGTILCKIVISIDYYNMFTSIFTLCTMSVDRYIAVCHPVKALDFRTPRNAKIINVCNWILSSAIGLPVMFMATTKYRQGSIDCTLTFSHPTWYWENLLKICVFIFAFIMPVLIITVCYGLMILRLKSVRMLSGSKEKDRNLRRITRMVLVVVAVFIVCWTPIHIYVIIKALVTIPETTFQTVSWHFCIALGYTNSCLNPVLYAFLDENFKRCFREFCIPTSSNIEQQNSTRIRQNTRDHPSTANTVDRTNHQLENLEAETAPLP
Description: as §1

[15] = target: T7, ETA (h) (Homo sapiens, UniProt P25101); assay: In vitro CEREP profiling, ETA (h) (agonist radioligand); format: binding; settings: test compound 10 uM
T7 construct: purchased Eurofins Cerep (SafetyScreen44), recognised from the panel format
T7 sequence (P25101 21-427): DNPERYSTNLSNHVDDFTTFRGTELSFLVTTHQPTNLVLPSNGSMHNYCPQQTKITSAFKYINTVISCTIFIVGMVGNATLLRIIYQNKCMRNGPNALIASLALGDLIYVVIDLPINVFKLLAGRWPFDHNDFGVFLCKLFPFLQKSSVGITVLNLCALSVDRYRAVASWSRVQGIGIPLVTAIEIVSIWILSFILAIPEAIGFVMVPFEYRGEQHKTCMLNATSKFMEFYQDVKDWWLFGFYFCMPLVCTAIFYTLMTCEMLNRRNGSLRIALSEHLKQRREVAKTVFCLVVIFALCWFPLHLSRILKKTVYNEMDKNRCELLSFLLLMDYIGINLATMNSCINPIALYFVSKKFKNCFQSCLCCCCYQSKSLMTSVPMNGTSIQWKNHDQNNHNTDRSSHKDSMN
Description: as §1

[16] = In vitro human hepatocyte stability; format: in vitro ADME
Description: as §2

[17] = test system: AR(h); assay: In vitro CEREP profiling, AR(h) (agonist radioligand); format: binding, human; settings: test compound concentration 10 uM
Description: as §1

[18] = In vitro dog plasma protein binding
[19] = In vitro fetal calf serum protein binding
[20] = In vitro human plasma protein binding
[21] = In vitro mouse plasma protein binding
[22] = In vitro rat plasma protein binding

In the case of `CC(C)[C@H](Nc1ncnc2[nH]c(-c3cnn(C)c3C#N)cc12)c1ccc2c(n1)OCCO2` [ASAP-0010715], the perc_max_measured [1] is reported as 122.135% and 106.633%, the perc_min_measured [1] is reported as 93.468% and 72.24% and the EC50 [1] is reported as greater than 5 µM. For the same compound, the EC90 [1] was greater than 5 µM, the fu [2, 18] was 0.042 and the perc_bound [2, 18] was 95.8%. The perc_free [2, 18] was 4.24%, the perc_recovered [2, 18] was 87.48% and the fu [2, 19] was 0.072. It also gave a perc_bound [2, 19] of 92.8%, a perc_free [2, 19] of 7.24% and a perc_recovered [2, 19] of 89.85%. It also gave a fu [2, 20] of 0.005, a perc_bound [2, 20] of 99.5% and a perc_free [2, 20] of 0.541%. The perc_recovered [2, 20] was 113.8%, the fu [2, 21] was 0.026 and the perc_bound [2, 21] was 97.4%. The perc_free [2, 21] was 2.56%, the perc_recovered [2, 21] was 93.63% and the fu [2, 22] was 0.02. The perc_bound [2, 22] was 98.0%, the perc_free [2, 22] was 2.04% and the perc_recovered [2, 22] was 97.27%. For the same compound, the “perc_inhibition (% inhibition of the binding of a ligand specific for each target)” value [3] was 9%, the “perc_inhibition: % inhibition of control enzyme activity, PDE4D2 (h)” value [4] was 70% and the “perc_inhibition (% inhibition of the binding of a ligand specific for each target)” value [5] was 2%. For the same compound, the clint [6] was 91.6 uL/min/1E6 cells, the t_half [6] was 7.57 min and the “perc_inhibition (% inhibition of the binding of a ligand specific for each target)” value [7] was 5%. The “perc_inhibition (% inhibition of the binding of a ligand specific for each target)” value [8] was 0%, the “perc_inhibition (% inhibition of the binding of a ligand specific for each target)” value [9] was 4% and the “perc_inhibition (% inhibition of the binding of a ligand specific for each target)” value [10] was 9%. For the same compound, the clint [11] was 17.0 µL/min/mg, the perc_remaining [11] was 78.0% and the t_half [11] was 100.0 min. For the same compound, the perc_remaining_no_cofactor [11] was 116.0%, the clint [12] was 23.7 µL/min/mg and the t_half [12] was 29.2 min. For the same compound, the “perc_inhibition (% inhibition of the binding of a ligand specific for each target)” value [13] was 27%, the “perc_inhibition (% inhibition of the binding of a ligand specific for each target)” value [14] was 15% and the “perc_inhibition (% inhibition of the binding of a ligand specific for each target)” value [15] was 42%. For the same compound, the clint [16] was 28.7 uL/min/1E6 cells, the t_half [16] was 24.2 min and the “perc_inhibition (% inhibition of the binding of a ligand specific for each target)” value [17] was -3%.

In the case of `CNCc1cc(-c2cc3c(N[C@@H](c4ccc5c(c4)S(=O)(=O)CCC5)C(C)C)ncnc3[nH]2)co1` [ASAP-0011176], the perc_max_measured [1] is reported as 108.298% and 134.469%, the perc_min_measured [1] is reported as 91.617% and 86.125% and the EC50 [1] is reported as greater than 5 µM. For the same compound, the EC90 [1] was greater than 5 µM, the fu [2, 18] was 0.088 and the perc_bound [2, 18] was 91.2%. For the same compound, the perc_free [2, 18] was 8.77%, the perc_recovered [2, 18] was 70.87% and the fu [2, 19] was 0.08. The perc_bound [2, 19] was 92.0%, the perc_free [2, 19] was 8.01% and the perc_recovered [2, 19] was 78.6%. The fu [2, 20] was 0.08, the perc_bound [2, 20] was 92.0% and the perc_free [2, 20] was 8.01%. For the same compound, the perc_recovered [2, 20] was 78.61%, the fu [2, 21] was 0.031 and the perc_bound [2, 21] was 96.9%. It also gave a perc_free [2, 21] of 3.14%, a perc_recovered [2, 21] of 94.01% and a fu [2, 22] of 0.072. The perc_bound [2, 22] was 92.8%, the perc_free [2, 22] was 7.24% and the perc_recovered [2, 22] was 95.34%. The “perc_inhibition (% inhibition of the binding of a ligand specific for each target)” value [3] was -3%, the “perc_inhibition: % inhibition of control enzyme activity, PDE4D2 (h)” value [4] was 43% and the “perc_inhibition (% inhibition of the binding of a ligand specific for each target)” value [5] was -1%. The clint [6] was 74.7 uL/min/1E6 cells, the t_half [6] was 9.27 min and the “perc_inhibition (% inhibition of the binding of a ligand specific for each target)” value [7] was -3%. For the same compound, the “perc_inhibition (% inhibition of the binding of a ligand specific for each target)” value [8] was 1%, the “perc_inhibition (% inhibition of the binding of a ligand specific for each target)” value [9] was 11% and the “perc_inhibition (% inhibition of the binding of a ligand specific for each target)” value [10] was 39%. The clint [11] was 133.0 µL/min/mg, the perc_remaining [11] was 10.0% and the t_half [11] was 12.6 min. For the same compound, the perc_remaining_no_cofactor [11] was 95.0%, the clint [12] was 20.0 µL/min/mg and the t_half [12] was 34.7 min. The “perc_inhibition (% inhibition of the binding of a ligand specific for each target)” value [13] was 13%, the “perc_inhibition (% inhibition of the binding of a ligand specific for each target)” value [14] was -5% and the “perc_inhibition (% inhibition of the binding of a ligand specific for each target)” value [15] was -1%. For the same compound, the clint [16] was 14.2 uL/min/1E6 cells, the t_half [16] was 48.9 min and the “perc_inhibition (% inhibition of the binding of a ligand specific for each target)” value [17] was 10%.
